Key:
Type in all cases: in vivo
[1] = tested on: Diabrotica balteata (corn root worm); assay: Diabrotica balteata (corn root worm), sprayed maize sprouts; settings: 96 h, application rate 200 ppm, L2 larvae, 4 days after infestation, read-out: control in at least one of the two categories (mortality or growth inhibition)
Experimental: Maize sprouts placed onto an agar layer in 24-well microtiter plates were treated with aqueous test solutions prepared from 10,000 ppm DMSO stock solutions by spraying. After drying, the plates were infested with L2 larvae (6 to 8 per well). The samples were assessed for mortality and growth inhibition in comparison to untreated samples 4 days after infestation.

[2] = tested on: Euschistus heros (Neotropical Brown Stink Bug); assay: Euschistus heros feeding/contact activity; settings: 120 h, application rate 200 ppm, N2 nymphs on soybean leaves, 5 days after infestation, read-out: control in at least one of the two categories (mortality or growth inhibition)
Experimental: Soybean leaves on agar in 24-well microtiter plates were sprayed with aqueous test solutions prepared from 10,000 ppm DMSO stock solutions. After drying the leaves were infested with N2 nymphs. The samples were assessed for mortality and growth inhibition 5 days after infestation.

[3] = tested on: Frankliniella occidentalis (Western Flower Thrips); assay: Frankliniella occidentalis feeding/contact activity; settings: foliar, 168 h, application rate 200 ppm, mixed ages on sunflower leaf discs, 7 days after infestation
Experimental: Sunflower leaf discs were placed on agar in 24-well microtiter plates and sprayed with aqueous test solutions prepared from 10,000 DMSO stock solutions. After drying the leaf discs were infested with a Frankliniella population of mixed ages. The samples were assessed for mortality 7 days after infestation.

[4] = tested on: Myzus persicae (Green Peach Aphid); assay: Myzus persicae feeding/contact activity; settings: foliar, 144 h, application rate 200 ppm, sunflower leaf discs sprayed, 6 days after infestation
Experimental: Sunflower leaf discs were placed onto agar in a 24-well microtiter plate and sprayed with aqueous test solutions prepared from 10,000 ppm DMSO stock solutions. After drying, the leaf discs were infested with an aphid population of mixed ages. The samples were assessed for mortality 6 days after infestation.

[5] = tested on: Myzus persicae (Green Peach Aphid); assay: Myzus persicae feeding activity (sucrose solution, Parafilm); settings: 120 h, test rate 12.5 ppm, in sucrose solution, 5 days after infestation
[6] = tested on: Plutella xylostella (Diamond Back Moth); assay: Plutella xylostella feeding/contact activity, 96-well artificial diet; settings: 216 h, application rate 500 ppm, 9 days after infestation
[7] = tested on: Plutella xylostella (Diamond Back Moth); assay: Plutella xylostella feeding/contact activity, 24-well artificial diet; settings: 192 h, application rate 200 ppm, 24-well artificial diet, 8 days after infestation, read-out: control in at least one of the two categories (mortality or growth inhibition)
Experimental: 24-well microtiter plates with artificial diet were treated with aqueous test solutions prepared from 10,000 ppm DMSO stock solutions by pipetting. After drying, Plutella eggs were pipetted through a plastic stencil onto a gel blotting paper and the plate was closed with it. The samples were assessed for mortality and growth inhibition in comparison to untreated samples 8 days after infestation.

[8] = tested on: Spodoptera littoralis (Egyptian Cotton Leaf Worm); assay: Spodoptera littoralis feeding/contact activity; settings: foliar, 72 h, application rate 200 ppm, L1 larvae on cotton leaf discs, 3 days after infestation, read-out: control in at least one of the three categories (mortality or growth inhibition or anti-feeding)
Experimental: Cotton leaf discs were placed onto agar in 24-well microtiter plates and sprayed with aqueous test solutions prepared from 10,000 ppm DMSO stock solutions. After drying the leaf discs were infested with five L1 larvae. The samples were assessed for mortality, anti-feeding and growth inhibition 3 days after infestation.

[9] = tested on: Thrips tabaci (Onion thrips); assay: Thrips tabaci feeding/contact activity; settings: foliar, 144 h, application rate 200 ppm, sunflower leaf discs, 6 days after infestation, read-out: control in at least one of the two categories (mortality or anti-feeding)
Experimental: Sunflower leaf discs were placed on agar in 24-well microtiter plates and sprayed with aqueous test solutions prepared from 10,000 ppm DMSO stock solutions. After drying the leaf discs were infested with a thrips population of mixed ages. The samples were assessed for mortality, and anti-feeding 6 days after infestation.

[10] = tested on: Aphis craccivora (Black Bean Aphid); assay: Aphis craccivora mixed population, contact/feeding; settings: 120 h, test rate 200 ppm, pea seedlings sprayed, 5 days after treatment
Experimental: Pea seedlings infested with mixed aged aphid population were treated with diluted test solutions in a spray chamber. 5 days after treatment, samples were assessed for mortality.

[11] = tested on: Aphis craccivora (Black Bean Aphid); assay: Aphis craccivora mixed population, systemic/feeding; settings: 120 h, test rate 12.5 ppm, pea seedlings in test solutions, 5 days
Experimental: Pea seedlings infested with mixed aged aphid population, were put into glass vials with test solutions. 5 days later, samples were assessed for mortality.

[12] = tested on: Carpocapsa (Cydia) Pomonella (Codling Moth); assay: Carpocapsa (Cydia) pomonella larvicide, feeding/contact; settings: 336 h, test rate 50 ppm, L1 larvae on diet cubes, 14 days after infestation, read-out: control in at least one of the two categories (mortality or growth inhibition)
Experimental: Diet cubes coated with paraffin were sprayed with diluted test solutions in an application chamber. After drying off the treated cubes (10 replicates) were infested with 1 L1 larvae. Samples were incubated at 26-27° C. and checked 14 days after infestation for mortality and growth inhibition.

[13] = tested on: Nilaparvata lugens (Brown Plant Hopper); assay: Nilaparvata lugens larvicide, systemic into water; settings: 168 h, test rate 12.5 ppm, into nutritive solution of rice plants, N3 nymphs, 7 days after infestation, read-out: control in at least one of the two categories (mortality or growth inhibition)
Experimental: Rice plants cultivated in a nutritive solution were treated with the diluted test solutions into nourishing cultivation system. 1 day after application plants were infested with ˜20 N3 nymphs. 7 days after infestation samples were assessed for mortality and growth inhibition.

CC(c1ncnn1-c1ncccn1)N(C)C(=O)c1cc(C(F)(F)F)cc(C(F)(F)F)c1 (stereo not drawn) [Compound 1]
≥ 80%: percent control (mortality or growth inhibition) at 200 ppm [1] | percent control (mortality or growth inhibition) at 200 ppm [2] | mortality at 200 ppm [3] | mortality at 200 ppm [4] | mortality at 12.5 ppm [5] | mortality at 500 ppm [6] | percent control (mortality or growth inhibition) at 200 ppm [7] | percent control (mortality, anti-feedant effect or growth inhibition) at 200 ppm [8] | percent control (mortality, anti-feedant effect or growth inhibition) at 200 ppm [9] | mortality at 200 ppm [10] | mortality at 12.5 ppm [11] | percent control (mortality or growth inhibition) at 50 ppm [12] | percent control (mortality or growth inhibition) at 12.5 ppm [13]

CC(c1ncnn1-c1ncccn1)N(CC1CC1)C(=O)c1cc(C(F)(F)F)cc(C(F)(F)F)c1 (stereo not drawn) [Compound 3]
≥ 80%: percent control (mortality or growth inhibition) at 200 ppm [1] | percent control (mortality or growth inhibition) at 200 ppm [2] | mortality at 200 ppm [3] | mortality at 200 ppm [4] | mortality at 12.5 ppm [5] | mortality at 500 ppm [6] | percent control (mortality or growth inhibition) at 200 ppm [7] | percent control (mortality, anti-feedant effect or growth inhibition) at 200 ppm [8] | percent control (mortality, anti-feedant effect or growth inhibition) at 200 ppm [9] | mortality at 200 ppm [10] | mortality at 12.5 ppm [11] | percent control (mortality or growth inhibition) at 50 ppm [12] | percent control (mortality or growth inhibition) at 12.5 ppm [13]

CC(NC(=O)c1cc(C(F)(F)F)cc(C(F)(F)F)c1)c1ncnn1-c1ncccn1 (stereo not drawn) [Compound 4]
≥ 80%: percent control (mortality or growth inhibition) at 200 ppm [1] | percent control (mortality or growth inhibition) at 200 ppm [2] | mortality at 200 ppm [3] | mortality at 200 ppm [4] | mortality at 12.5 ppm [5] | mortality at 500 ppm [6] | percent control (mortality or growth inhibition) at 200 ppm [7] | percent control (mortality, anti-feedant effect or growth inhibition) at 200 ppm [8] | percent control (mortality, anti-feedant effect or growth inhibition) at 200 ppm [9] | mortality at 200 ppm [10] | mortality at 12.5 ppm [11] | percent control (mortality or growth inhibition) at 50 ppm [12] | percent control (mortality or growth inhibition) at 12.5 ppm [13]

— patent publication US20210068395A1, “METHODS OF APPLYING ONE OR MORE CERTAIN HETEROARYL-1,2,4-TRIAZOLE AND HETEROARYL-TETRAZOLE COMPOUNDS TO CONTROL DAMAGE ON PLANTS, PROPAGATION MATERIAL THEREOF, AND PLANT DERIVED PRODUCTS” (SYNGENTA CROP PROTECTION AG, priority 2018, published 2021)
